Reference: patent US20240197888A1, “SOS1 PROTEIN DEGRADERS, PHARMACEUTICAL COMPOSITIONS THEREOF, AND THEIR THERAPEUTIC APPLICATIONS” (BioTheryX, Inc., priority 2021, published 2024)

Key:
Type in all cases: cell-based
[1] = system: SW480 (G12V) cells; experiment: Cell viability assay (CELLTITER-GLO), SW480 cells; settings: Homo sapiens, 72 h, Inhibition of cancerous cells, 3 days incubation, luminescence
Description: (§1) AsPC-1, H358, and SW48 cells were cultured in RPMI 1640 media supplemented with 10% fetal bovine serum, streptomycin, and penicillin. Lovo and SW480 cells were cultured in DMEM media supplemented with 10% fetal bovine serum, streptomycin, and penicillin. The cell lines were plated in their respective medium supplemented with 2.5% fetal bovine serum, streptomycin, and penicillin. All cell lines were plated in white walled 96-well plates at 2,000 cells/well or 384-well plates at 500 cells/well, except Lovo, which were plated at 4,000 or 1,000 cells/well, respectively. The cells were incubated in DMSO (control) or a compound for 3 days at 37° C. under 5% CO2. A CELLTITER-GLO® reagent ([…] was then added to each well. After a 10 min incubation with shaking, luminescence was measured using an ENVISION® multimode plate reader. IC50 values are summarized in Table 1.

[2] = system: H358 (G12C) cells; experiment: Cell viability assay (CELLTITER-GLO), H358 cells; settings: Homo sapiens, NCI-H358, 72 h, Inhibition of cancerous cells, 3 days incubation, luminescence
Description: as §1

[3] = system: SW48 (wt) cells; experiment: Cell viability assay (CELLTITER-GLO), SW48 cells; settings: Homo sapiens, 72 h, Inhibition of cancerous cells, 3 days incubation, luminescence
Description: as §1

[4] = biological target: T1, SOS1 (Homo sapiens, UniProt Q07889); experiment: Protein degradation assay (western blot) in MV-4-11 cells; settings: 6 h; for Degradation 3 μM (SOS1 protein, % degradation relative to DMSO control): compound at 3 μM; for Degradation 10 μM (SOS1 protein, % degradation relative to DMSO control): compound at 10 μM
T1 construct: Whole cell extracts were prepared using an immunoprecipitation (IP) lysis buffer; endogenous in cells; host or cells: MV-4-11
T1 sequence (Q07889 1-1333): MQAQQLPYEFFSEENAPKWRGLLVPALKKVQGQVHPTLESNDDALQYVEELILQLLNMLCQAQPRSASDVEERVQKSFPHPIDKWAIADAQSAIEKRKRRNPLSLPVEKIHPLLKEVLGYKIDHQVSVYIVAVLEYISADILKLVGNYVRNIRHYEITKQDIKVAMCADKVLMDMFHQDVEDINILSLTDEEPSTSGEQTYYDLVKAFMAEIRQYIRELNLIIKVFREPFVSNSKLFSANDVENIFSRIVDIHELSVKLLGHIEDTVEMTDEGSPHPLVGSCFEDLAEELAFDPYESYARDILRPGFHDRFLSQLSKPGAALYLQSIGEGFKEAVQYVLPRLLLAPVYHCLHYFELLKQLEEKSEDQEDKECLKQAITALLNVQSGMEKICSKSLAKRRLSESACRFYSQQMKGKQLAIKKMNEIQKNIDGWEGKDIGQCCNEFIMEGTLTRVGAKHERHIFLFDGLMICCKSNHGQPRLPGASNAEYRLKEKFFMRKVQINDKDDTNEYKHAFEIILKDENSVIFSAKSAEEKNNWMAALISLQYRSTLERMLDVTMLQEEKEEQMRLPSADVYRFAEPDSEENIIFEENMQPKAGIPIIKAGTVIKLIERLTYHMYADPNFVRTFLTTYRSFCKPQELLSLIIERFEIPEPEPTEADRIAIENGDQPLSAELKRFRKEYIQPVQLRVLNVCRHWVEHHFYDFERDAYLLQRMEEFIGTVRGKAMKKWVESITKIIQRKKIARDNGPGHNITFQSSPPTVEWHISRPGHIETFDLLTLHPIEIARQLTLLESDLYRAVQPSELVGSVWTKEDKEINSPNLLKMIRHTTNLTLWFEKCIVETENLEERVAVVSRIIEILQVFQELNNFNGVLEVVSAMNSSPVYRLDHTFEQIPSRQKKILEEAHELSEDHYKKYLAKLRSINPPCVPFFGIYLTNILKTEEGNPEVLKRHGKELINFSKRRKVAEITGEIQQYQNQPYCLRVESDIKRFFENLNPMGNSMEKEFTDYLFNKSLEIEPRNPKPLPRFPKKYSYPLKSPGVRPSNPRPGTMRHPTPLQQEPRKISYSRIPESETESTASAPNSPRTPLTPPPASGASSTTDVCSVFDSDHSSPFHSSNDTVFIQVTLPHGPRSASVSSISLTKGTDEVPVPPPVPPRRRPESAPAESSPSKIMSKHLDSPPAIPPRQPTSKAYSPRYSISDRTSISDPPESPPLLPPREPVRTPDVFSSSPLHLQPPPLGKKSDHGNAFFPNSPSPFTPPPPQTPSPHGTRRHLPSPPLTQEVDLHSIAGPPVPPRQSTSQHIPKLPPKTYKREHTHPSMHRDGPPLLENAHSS
Description: MV-4-11 cells were grown in RPMI 1640 media supplemented with 10% fetal bovine serum, streptomycin, and penicillin. The cells were plated in 24-well plates in the growth media. The cells were then treated with a compound at indicated concentrations for 6 h. Whole cell extracts were prepared using an immunoprecipitation (IP) lysis buffer. Briefly, the cells were washed once in PBS, and the cell pellets were resuspended in the IP lysis buffer and incubated for 15 min on ice. Cell debris was removed by centrifugation and the cleared whole cell lysates were transferred to new tubes for further analysis.
For a western blot analysis, the whole cell protein extracts were separated on 4-12% SDS-polyacrylamide gels, transferred to nitrocellulose, and probed with primary antibodies. The nitrocellulose was subsequently washed and probed with IRDYE® secondary antibodies. The signals were detected using an ODYSSEY® Imaging System. The antibodies used in the assay included anti-SOS1; anti-KRAS; β-actin mouse monoclonal antibody; IRDYE® 680RD goat anti-rabbit antibody; and IRDYE® 800CW goat anti-mouse antibody.
[…] The % degradation values relative to the DMSO control are reported as “A,” “B,” “C,” or “D;” where “A” represents a percentage degradation value of no less than 50%; “B” represents a percentage degradation value of less than 50% and no less than 25%; “C” represents a percentage degradation value of less than 25% and no less than 10%; and “D” represents a percentage degradation value of less than 10%.

[5] = system: Lovo (G13D) cells; experiment: Cell viability assay (CELLTITER-GLO), Lovo cells; settings: Homo sapiens, 72 h, Inhibition of cancerous cells, 3 days incubation, luminescence
Description: as §1

| IC50 [1] [µM] | IC50 [2] [µM] | IC50 [3] [µM] | IC50 [5] [µM] | Compound | Degradation 3 μM (SOS1 protein, % degradation relative to DMSO control) [4] | Degradation 10 μM (SOS1 protein, % degradation relative to DMSO control) [4] |
| --- | --- | --- | --- | --- | --- | --- |
| 0.52 | 1.1 | 0.68 | 0.63 | COc1cc2c(N[C@H](C)c3cccc(Br)c3)nc(C)nc2cc1OCCCCCCCN1CCCCC1 [Compound A1, (R)—N-(1-(3-bromophenyl)ethyl)-6-methoxy-2-methyl-7-((7-(piperidin-1-yl)heptyl)oxy)quinazolin-4-amine] | B (a percentage degradation value of less than 50% and no less than 25%) | A (a percentage degradation value of no less than 50%) |
|  |  |  |  | CNCc1ccccc1-c1csc([C@@H](C)Nc2nc(CCCCCCCCN3CCCCC3)nc3cc(OC)c(OC)cc23)c1 [Compound C1, (R)-6,7-Dimethoxy-N-(1-(4-(2-((methylamino)methyl)phenyl)thiophen-2-yl)ethyl)-2-(8-(piperidin-1-yl)octyl)quinazolin-4-amine] | D (a percentage degradation value of less than 10%) | D (a percentage degradation value of less than 10%) |
